Laboratory results as given in US20240150345A1, “GCN2 MODULATING COMPOUNDS AND USES THEREOF” (HiberCell, Inc., priority 2021, published 2024).

biological target: T1, GCN2 (Homo sapiens, UniProt Q9P2K8); experiment: TR-FRET biochemical assay for inhibition of GCN2 activity; details: 2 nM GCN2, 100 nM GFP-eIF2α, 150 μM ATP, 1.5 hours at 25° C.
T1 construct: purchased Carma Biosciences (so in the source)
In short: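 Compounds (11-point, 3-fold series) were incubated with GCN2 (2 nM final), GFP-eIF2α (100 nM final) and 150 μM ATP with 2 mM DTT for 1.5 h at 25 °C. A 1 nM Tb-anti-P-eIF2α solution was then added for 2 h at 25 °C. TR-FRET was read (ex 340 nm, em 495/520 nm) and fitted with a 4-parameter sigmoidal curve.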

T1 sequence (Q9P2K8 whole entry): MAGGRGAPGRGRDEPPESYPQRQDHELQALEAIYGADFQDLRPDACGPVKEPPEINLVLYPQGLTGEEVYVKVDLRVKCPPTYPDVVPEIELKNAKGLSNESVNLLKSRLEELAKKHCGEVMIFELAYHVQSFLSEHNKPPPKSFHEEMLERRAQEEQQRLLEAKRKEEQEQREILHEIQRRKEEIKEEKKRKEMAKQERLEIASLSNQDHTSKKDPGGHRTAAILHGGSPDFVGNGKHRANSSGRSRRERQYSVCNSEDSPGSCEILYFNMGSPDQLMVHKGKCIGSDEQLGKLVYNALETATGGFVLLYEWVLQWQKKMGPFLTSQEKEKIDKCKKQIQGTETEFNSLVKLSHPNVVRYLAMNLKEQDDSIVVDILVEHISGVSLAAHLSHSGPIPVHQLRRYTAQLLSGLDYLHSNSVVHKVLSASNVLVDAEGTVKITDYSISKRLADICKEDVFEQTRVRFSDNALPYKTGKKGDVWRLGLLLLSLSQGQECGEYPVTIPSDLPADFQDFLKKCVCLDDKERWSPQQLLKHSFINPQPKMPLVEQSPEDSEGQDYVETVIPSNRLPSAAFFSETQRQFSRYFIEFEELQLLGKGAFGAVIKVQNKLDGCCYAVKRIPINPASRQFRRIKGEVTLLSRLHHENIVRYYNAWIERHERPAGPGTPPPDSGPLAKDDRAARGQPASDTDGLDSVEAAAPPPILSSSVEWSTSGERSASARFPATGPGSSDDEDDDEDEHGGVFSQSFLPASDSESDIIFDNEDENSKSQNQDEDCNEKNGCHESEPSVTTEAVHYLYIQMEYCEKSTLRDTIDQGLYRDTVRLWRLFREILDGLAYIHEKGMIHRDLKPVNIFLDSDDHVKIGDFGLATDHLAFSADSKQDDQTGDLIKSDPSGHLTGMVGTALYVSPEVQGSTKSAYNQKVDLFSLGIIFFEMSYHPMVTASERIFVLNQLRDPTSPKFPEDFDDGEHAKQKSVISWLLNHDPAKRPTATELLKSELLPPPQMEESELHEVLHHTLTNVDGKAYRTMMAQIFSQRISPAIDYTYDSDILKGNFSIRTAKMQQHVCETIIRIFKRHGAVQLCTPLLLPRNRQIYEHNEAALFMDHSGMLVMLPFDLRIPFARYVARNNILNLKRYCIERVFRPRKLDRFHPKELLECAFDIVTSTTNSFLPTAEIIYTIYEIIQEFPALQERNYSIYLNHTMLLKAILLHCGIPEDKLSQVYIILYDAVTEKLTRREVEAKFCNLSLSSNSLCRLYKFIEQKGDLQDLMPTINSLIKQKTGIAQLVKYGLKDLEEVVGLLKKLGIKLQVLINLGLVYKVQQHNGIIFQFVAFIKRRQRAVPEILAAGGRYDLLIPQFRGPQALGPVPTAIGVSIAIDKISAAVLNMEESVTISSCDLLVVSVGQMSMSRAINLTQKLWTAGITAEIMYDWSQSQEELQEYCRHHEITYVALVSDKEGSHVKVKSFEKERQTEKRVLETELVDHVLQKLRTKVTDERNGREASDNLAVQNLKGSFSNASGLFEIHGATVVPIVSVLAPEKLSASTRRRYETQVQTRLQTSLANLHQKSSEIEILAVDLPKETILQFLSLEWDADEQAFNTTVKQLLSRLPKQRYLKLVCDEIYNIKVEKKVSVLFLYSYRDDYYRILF

Structure (SMILES) | IC50 [nM]
COc1ncc(Cl)cc1S(=O)(=O)Nc1ccc(F)c(NCc2cnc3[nH]ncc3c2)c1F [Compound 6, 5-chloro-N-[2,4-difluoro-3-([1H-pyrazolo[3,4-b]pyridin-5-ylmethyl]amino)phenyl]-2-methoxypyridine-3-sulfonamide] | 50 to 500
COc1ncc(Cl)cc1S(=O)(=O)Nc1ccc(F)c(COc2cnc3[nH]nc(C)c3c2)c1F [Compound 14, 5-chloro-N-[2,4-difluoro-3-[([3-methyl-1H-pyrazolo[3,4-b]pyridin-5-yl]oxy)methyl]phenyl]-2-methoxypyridine-3-sulfonamide] | < 50
COc1ncc(Cl)cc1S(=O)(=O)Nc1ccc(F)c(COc2cnc3[nH]ncc3c2C)c1F [Compound 22, 5-chloro-N-[2,4-difluoro-3-[([4-methyl-1H-pyrazolo[3,4-b]pyridin-5-yl]oxy)methyl]phenyl]-2-methoxypyridine-3-sulfonamide] | < 50
COc1ncc(F)cc1S(=O)(=O)Nc1ccc(F)c(COc2cnc3c(c2)C2(CC2)C(=O)N3)c1F [Compound 72, N-[2,4-difluoro-3-([2-oxo-1H-spiro[cyclopropane-1,3-pyrrolo[2,3-b]pyridin]-5-yloxy]methyl)phenyl]-5-fluoro-2-methoxypyridine-3-sulfonamide] | < 50
COc1ncc(Cl)cc1S(=O)(=O)Nc1ccc(F)c(CCc2cnc3c(N)nccn23)c1F [Compound 32, N-[3-(2-[8-aminoimidazo[1,2-a]pyrazin-3-yl]ethyl)-2,4-difluorophenyl]-5-chloro-2-methoxypyridine-3-sulfonamide] | < 50
COc1ncc(F)cc1S(=O)(=O)Nc1ccc(F)c(COc2cnc3[nH]nc(C(C)(F)F)c3c2)c1F [Compound 81, N-[3-([[3-(1,1-difluoroethyl)-1H-pyrazolo[3,4-b]pyridin-5-yl]oxy]methyl)-2,4-difluorophenyl]-5-fluoro-2-methoxypyridine-3-sulfonamide] | < 50
COc1ncc(C#N)cc1S(=O)(=O)Nc1ccc(F)c(COc2cnc3[nH]nc(C)c3c2)c1F [Compound 50, 5-cyano-N-[2,4-difluoro-3-[([3-methyl-1H-pyrazolo[3,4-b]pyridin-5-yl]oxy)methyl]phenyl]-2-methoxypyridine-3-sulfonamide] | < 50
COc1ncc(F)cc1S(=O)(=O)Nc1ccc(F)c(COc2cnc3[nH]ncc3c2C#N)c1F [Compound 27, N-[3-[([4-cyano-1H-pyrazolo[3,4-b]pyridin-5-yl]oxy)methyl]-2,4-difluorophenyl]-5-fluoro-2-methoxypyridine-3-sulfonamide] | < 50
COc1ncc(F)cc1S(=O)(=O)Nc1ccc(F)c(COc2cnc3[nH]c(=O)n(C)c3c2)c1F [Compound 71, N-[2,4-difluoro-3-[([1-methyl-2-oxo-3H-imidazo[4,5-b]pyridin-6-yl]oxy)methyl]phenyl]-5-fluoro-2-methoxypyridine-3-sulfonamide] | < 50
COc1ncc(F)cc1S(=O)(=O)Nc1ccc(F)c(COc2cnn3cnc(C)c3c2)c1F [Compound 82, N-[2,4-difluoro-3-[([5-methylimidazo[1,5-b]pyridazin-3-yl]oxy)methyl]phenyl]-5-fluoro-2-methoxypyridine-3-sulfonamide] | < 50
COc1ncc(F)cc1S(=O)(=O)Nc1ccc(F)c(COc2cnc3[nH]nc(C)c3c2Cc2ccccc2)c1F [Compound 89, N-[3-[([4-benzyl-3-methyl-1H-pyrazolo[3,4-b]pyridin-5-yl]oxy)methyl]-2,4-difluorophenyl]-5-fluoro-2-methoxypyridine-3-sulfonamide] | > 1000
COc1ncc(Cl)cc1S(=O)(=O)Nc1ccc(F)c(COc2cnc3[nH]nc(C)c3c2)n1 [Compound 68, 5-chloro-N-[5-fluoro-6-[([3-methyl-1H-pyrazolo[3,4-b]pyridin-5-yl]oxy)methyl]pyridin-2-yl]-2-methoxypyridine-3-sulfonamide] | 50 to 500
COc1ncc(C#N)cc1S(=O)(=O)Nc1ccc(F)c(COc2cnc3[nH]nc(C(C)C)c3c2)c1F [Compound 55, 5-cyano-N-[2,4-difluoro-3-[([3-isopropyl-1H-pyrazolo[3,4-b]pyridin-5-yl]oxy)methyl]phenyl]-2-methoxypyridine-3-sulfonamide] | 50 to 500
COc1ncc(F)cc1S(=O)(=O)Nc1ccc(F)c(COc2cnc3[nH]nc(CC(F)(F)F)c3c2)c1F [Compound 80, N-[2,4-difluoro-3-([[3-(2,2,2-trifluoroethyl)-1H-pyrazolo[3,4-b]pyridin-5-yl]oxy]methyl)phenyl]-5-fluoro-2-methoxypyridine-3-sulfonamide] | < 50
Cc1ncc(F)cc1S(=O)(=O)Nc1ccc(F)c(COc2cnc3[nH]nc(C)c3c2)c1Cl [Compound 74, N-[2-chloro-4-fluoro-3-[([3-methyl-1H-pyrazolo[3,4-b]pyridin-5-yl]oxy)methyl]phenyl]-5-fluoro-2-methylpyridine-3-sulfonamide] | < 50
COc1ncc(F)cc1S(=O)(=O)Nc1ccc(F)c(COc2cnc3[nH]nc(C)c3c2-c2ccccn2)c1F [Compound 90, N-[2,4-difluoro-3-([[3-methyl-4-(pyridin-2-yl)-1H-pyrazolo[3,4-b]pyridin-5-yl]oxy]methyl)phenyl]-5-fluoro-2-methoxypyridine-3-sulfonamide] | 50 to 500
COc1ncc(F)cc1S(=O)(=O)Nc1ccc(F)c(COc2cnc3[nH]nc(C)c3c2C2CCCC2)c1F [Compound 92, N-(3-(((4-cyclopentyl-3-methyl-1H-pyrazolo[3,4-b]pyridin-5-yl)oxy)methyl)-2,4-difluorophenyl)-5-fluoro-2-methoxypyridine-3-sulfonamide] | 500 to 1000
COc1ncc(F)cc1S(=O)(=O)Nc1ccc(F)c(COc2cnc3[nH]nc(C)c3c2)n1 [Compound 67, 5-fluoro-N-[5-fluoro-6-[([3-methyl-1H-pyrazolo[3,4-b]pyridin-5-yl]oxy)methyl]pyridine-2-yl]-2-methoxypyridine-3-sulfonamide] | > 1000
COc1ncc(C#N)cc1S(=O)(=O)Nc1ccc(F)c(COc2cnc3[nH]ncc3c2)c1F [Compound 26, 5-cyano-N-[2,4-difluoro-3-([1H-pyrazolo[3,4-b]pyridin-5-yloxy]methyl)phenyl]-2-methoxypyridine-3-sulfonamide] | < 50
COc1ncc(F)cc1S(=O)(=O)Nc1ccc(F)c(COc2cnc3[nH]nc(-c4ccccc4)c3c2)c1F [Compound 84, N-[2,4-difluoro-3-[([3-phenyl-1H-pyrazolo[3,4-b]pyridin-5-yl]oxy)methyl]phenyl]-5-fluoro-2-methoxypyridine-3-sulfonamide] | < 50
COc1ncc(F)cc1S(=O)(=O)Nc1ccc(Cl)c(COc2cnc3[nH]nc(C)c3c2)c1F [Compound 78, N-(4-chloro-2-fluoro-3-(((3-methyl-1H-pyrazolo[3,4-b]pyridin-5-yl)oxy)methyl)phenyl)-5-fluoro-2-methoxypyridine-3-sulfonamide] | < 50
